Assay results from patent US12630542B2, “Compounds and their use as therapeutically active substances in the treatment and/or prevention of diseases involving the retinal pigment epithelium” (ENDOGENA THERAPEUTICS, INC., priority 2020, dated 2026).

Test system: iPSC-fRPE cells
Test: Compound screen for RPE pigmentation in iPSC-fRPE cells (light absorbance at 510 nm)
Type: cell-based, human
Conditions: for Relative Pigmentation: test compound 5 μM in 0.1% DMSO, 32 days, absorbance at 510 nm, relative to plate internal DMSO controls (control = 1); for pigmentation of RPE cells / activity, result in words: qualitative statement
Experimental: Induced pluripotent stem cell-derived fetal RPE (iPSC-fRPE) cells acquired from the University of California, Santa Barbara, were generated from human fetal RPE cells that were isolated and reprogramed to iPSC, then differentiated and sorted for cellular markers to collect RPE progenitors. Vials were transported frozen on dry ice and stored in minus 80° C.
For the phenotypic screens, iPSC-fRPE cells were thawed and cultured in Matrigel-coated flasks with N1VA media containing 1×MEM solution supplemented with 2.2 g/L Sodium Bicarbonate, 0.25 mg/ml Taurine, 0.02 ug/ml Hydrocortisone, 0.013 ug/ml Triiodo Thyronine, 0.1 ug/ml Lipoic acid, 1% MEM Non-Essential Amino Acids, 1% Penicillin/Streptomycin, 2% Neurocult SM1 supplement and 1% N1 supplement. For the initial cultures, Thiazovivin was added to the media at 2 uM for the first 24 hr of incubation, after which the media was replaced with fresh N1VA media for additional three-day incubation at 37° C. with 5% CO2.
iPSC-fRPE cells were plated with N1VA media at a density of 10,000 cells per well in Matrigel-coated 96-well plates and cultured for 24 hr prior to the treatment with test compounds at a final concentration of 5 μM in 0.1% DMSO. Internal controls for each test plate were (a) 0.1% DMSO as a negative control and (b) 0.1% DMSO+10 ng/ml human recombinant bFGF (STEMCELL) as a positive control. To identify hits that promote RPE pigmentation, cells were maintained for a period of 32 days and treated with medium containing the test or control compounds according to the media exchange regimen (FIG. 1). The degree of pigmentation was quantified by measuring the light absorbance at 510 nm with Cytation5 imaging reader (BIOTEK). Compounds that increased the normalized absorbance endpoint by more than three standard deviations over the average DMSO readout per plate were considered as hits. Pigmentation values are finally reported relative to plate internal DMSO controls.

| Compound | Relative Pigmentation | pigmentation of RPE cells / activity, result in words |
| --- | --- | --- |
| O=C(Nc1ccc(-c2cnco2)c(Cl)c1)C1CCc2ccccc21 (racemic) [Compound 6, N-(3-chloro-4-(oxazol-5-yl)phenyl)-2,3-dihydro-1H-indene-1-carboxamide] | 1.86 | – |
| O=C(Nc1ccc(-c2cnco2)c(Cl)c1)C1Cc2ccccc2C1 [Compound 7, N-(3-chloro-4-(oxazol-5-yl)phenyl)-2,3-dihydro-1H-indene-2-carboxamide] | 2.92 | excellent results |
| O=C(Nc1ccc(-c2cnco2)c(Cl)c1)C1CCOc2ccccc21 (racemic) [Compound 4, N-(3-chloro-4-(oxazol-5-yl)phenyl) chromane-4-carboxamide] | 2.65 | – |
| N-(3-chloro-4-(oxazol-5-yl)phenyl)-1,2,3,4-tetrahydronaphthalene-2-carboxamide [Compound 5] | 1.18 | – |
| O=C(Nc1ccc(-c2cnco2)c(Cl)c1)C1COc2ccccc2C1 (single isomer, unassigned; (+)) [Compound 2, (+)-N-(3-chloro-4-(1,3-oxazol-5-yl)phenyl)chromane-3-carboxamide] | 1.68 | – |
| O=C(Nc1ccc(-c2cnco2)c(Cl)c1)C1COc2ccccc2C1 (single isomer, unassigned; (-)) [Compound 1, (−)-N-(3-chloro-4-(1,3-oxazol-5-yl)phenyl)chromane-3-carboxamide] | 3.05 | excellent results |
| O=C(Nc1ccc(-c2cnco2)c(Cl)c1)C1Cc2ccccc2CO1 (racemic) [Compound 3, N-(3-chloro-4-(oxazol-5-yl)phenyl)isochromane-3-carboxamide] | 1.66 | – |
